What all share (type): functional, cell-based
Assay [1] addresses T1, TyR1 (Chilo suppressalis) (UniProt H9TVJ1).
T1 sequence (whole entry): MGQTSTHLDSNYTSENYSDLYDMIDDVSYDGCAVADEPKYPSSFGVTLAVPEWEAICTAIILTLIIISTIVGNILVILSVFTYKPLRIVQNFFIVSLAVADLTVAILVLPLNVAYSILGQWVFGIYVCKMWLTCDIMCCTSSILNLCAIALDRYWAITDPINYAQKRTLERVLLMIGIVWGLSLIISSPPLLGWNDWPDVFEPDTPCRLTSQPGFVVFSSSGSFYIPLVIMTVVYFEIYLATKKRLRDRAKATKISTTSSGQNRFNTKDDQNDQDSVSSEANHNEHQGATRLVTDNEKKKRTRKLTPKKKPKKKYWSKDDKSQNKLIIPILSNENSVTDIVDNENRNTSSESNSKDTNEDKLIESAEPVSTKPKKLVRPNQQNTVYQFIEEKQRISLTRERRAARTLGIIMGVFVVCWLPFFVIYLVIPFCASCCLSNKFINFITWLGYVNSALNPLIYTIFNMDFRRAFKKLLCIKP
As to the kind of experiment: Agonist activity at Chilo suppressalis (rice stem borer) tyramine receptor TyR1 expressed in HEK293 cells assessed as reduction in forskolin-induced cAMP accumulation at 10 uM incubated for 20 min. On the set-up: scale not given: the % may be the effect or the level left. For orientation: cAMP levels reflect the balance of adenylyl cyclase and phosphodiesterase activity.

Assay [2] has as its target T1, TyR1 (Chilo suppressalis). As to the kind of experiment: Agonist activity at Chilo suppressalis (rice stem borer) tyramine receptor TyR1 expressed in HEK293 cells assessed as reduction in forskolin-induced cAMP accumulation at < 1 umol incubated for 20 min.
Assay [3] deals with T2, TyR1 (Chilo suppressalis, UniProt H9TVJ1).
T2 sequence (H9TVJ1 whole entry): T1 sequence (whole entry)
In words: (§1) Agonist activity at Chilo suppressalis (rice stem borer) tyramine receptor TyR1 expressed in HEK293 cells assessed as reduction in forskolin-induced cAMP accumulation incubated for 20 min.

For assay [4], the target named is T1, TyR1 (Chilo suppressalis). The description is as §1.
Assay [5] addresses T1, TyR1 (Chilo suppressalis). In words: Agonist activity at Chilo suppressalis (rice stem borer) tyramine receptor TyR1 expressed in HEK293 cells assessed as increase in forskolin-induced cAMP accumulation at 10 uM incubated for 20 min relative to untreated control.

SMILES strings stand for the structures. Counter-ions that a name gives are not always drawn. Calls of active or inactive are those of the source. No cut-off for these calls is given here.

Usually EC50 stands for the concentration needed to bring the measured effect to its halfway point.

On to `Cc1ccc(/N=C/N(C)/C=N/c2ccc(C)cc2C)c(C)c1`, for which the outcome in assay [1] was Active. Moreover, the result in assay [2] was inactive. As to `NCCc1ccc(O)cc1` [TYRAMINE HYDROCHLORIDE], the Activity in assay [1] is 75%; in assay [4], “Dose-dependent effect”. In addition, in assay [3], the half-maximal effective concentration (EC50) amounted to 369 nM.

With `Cc1cc(Cl)ccc1/N=C/N(C)C`, in assay [1], the result was inactive.

Take `NCCc1c[nH]c2ccc(O)cc12`: the result in assay [1] and in assay [5] was inactive.

For `NCCc1ccc(O)c(O)c1`, the fold change (FC) in assay [5] worked out at 2. Turning to `NCC(O)c1ccc(O)cc1` (racemic) [OCTOPAMINE HYDROCHLORIDE], the figures for the Activity in assay [1] and in assay [4] were 56% and “Dose-dependent effect”, respectively. The EC50 in assay [3] came out at 978 nM.

For `Clc1cccc(Cl)c1NC1=NCCN1`, in assay [1], the outcome was Active. With `c1ccc2c(CC3=NCCN3)cccc2c1`, in assay [1], the outcome was inactive.

The values are drawn from ChEMBL document CHEMBL3046273, “Molecular cloning and pharmacological characterisation of a tyramine receptor from the rice stem borer, Chilo suppressalis (Walker)” (Pest Manag Sci, 2013).
